Reference: patent publication US20230355613A1, “METHODS FOR TREATING PANCREATIC DUCTAL ADENOCARCINOMA” (HEALTH RESEARCH, INC., priority 2022, published 2023)

Columns and labels:
HPNE cells [1] = assay: 72-hour dose-response cell viability assay (CellTiter-Glo); format: cell-based; conditions: Homo sapiens, HPNE non-transformed pancreatic epithelial cells
Source text: (§1) PDAC cells are sensitive to chemical inhibition of CPSF3. CPSF3 was recently identified as the target for the small molecule JTE-607. JTE-607 is a prodrug that, when metabolized by the ester hydrolyzing enzyme carboxylesterase 1 (CES1), binds to CPSF3 and inhibits its catalytic activity, impairing the processing of newly synthesized mRNAs. As genetic depletion of CPSF3 attenuated PDAC cell proliferation (FIG. 1), it 2as hypothesized that pharmacologic inhibition of CPSF3 with JTE-607 could represent a novel therapeutic approach in PDAC. The sensitivity of multiple human pancreatic cell lines, both non-transformed and PDAC, to JTE-607 in a 72-hour dose-response cell viability assay was examined. […] To examine if sensitivity to CPSF3 inhibition was associated with proliferation rate, the relationship between cell line doubling time and JTE-607 sensitivity was assessed. […] Next, the effect of JTE-607 on cell proliferation by treating cells with increasing concentrations of JTE-607 and assessing cell viability in a time-dependent fashion (FIGS. 2C-2E) was determined. […] Finally, the effect of JTE-607 on colony formation in PDAC cell lines was tested. […] Therefore, JTE-607 selectively attenuates proliferation of PDAC cells over non-transformed pancreatic cells.
(§2) JTE-607 studies. For dose-response measurements, cells were seeded at a density of 1000 cells per well in a 96-well white plate. The next day, JTE-607 was titrated over a range of concentrations using the Tecan D300e Digital Dispenser and cell viability was measured 72 hours post drug titration using a CellTiter-Glo Luminescent Cell Viability Assay Kit (Promega). For cell proliferation experiments, cells were seeded at a density of 250 cells per well in a 96-well white plate. DMSO control or JTE-607 was dispensed at varying concentrations and proliferation was measured using CellTiter-Glo Assay at days 0, 2, 4 and 6. For clonogenicity experiments, cells were seeded at a concentration of 500 cells per well and treated with different concentrations of JTE-607. Cells were allowed to grow over a period of 11-14 days after which they were fixed in 10% formalin, stained with 0.2% Crystal Violet and images were obtained for analysis. Colony area was measured using ImageJ software. Data were normalized to DMSO control data points.

Panc1 cells [2] = assay: as above; format: cell-based; conditions: Homo sapiens, PANC-1, Panc1 PDAC cells
Source text: as §1, §2

C7 CAF = assay: as above; format: cell-based; conditions: Fibroblast, C7 CAF human cancer associated fibroblasts
Source text: as §1, §2

HPDE cells = assay: as above; format: cell-based; conditions: Homo sapiens, HPDE non-transformed pancreatic epithelial cells
Source text: as §1, §2

PancPat CAFs = assay: as above; format: cell-based; conditions: Fibroblast, PancPat CAFs human cancer associated fibroblasts
Source text: as §1, §2

[3] = test system: C-reactive protein, IL-10 and IL-1ra; conditions: in humans; cited from earlier work
HPNE cells [4] = assay: Micrococcal Nuclease (MNase) assay of chromatin condensation; format: cell-based, human; conditions: compared with DMSO-treated cells
Protocol: (§3) Therefore, a Micrococcal Nuclease (MNase) assay was performed to assess relative chromatin condensation. In this assay, protein-free DNA is digested by MNase, producing DNA fragmentation patterns that are indicators of whether chromatin is in a condensed or relaxed state. […] To assess chromatin destabilization in a living cell, the HeLa-TI cell line model that has a silenced GFP reporter within a heterochromatic region of the genome was utilized. […] Therefore, GFP expression in HeLa-TI cells was monitored upon JTE-607 treatment by both fluorescence microscopy and flow cytometry.
(§4) Micrococcal digestion. Micrococcal Nuclease (MNase) was performed as previously described. Briefly, cells were trypsinized, washed with 1×RSB buffer (10 mM Tris HCL, pH 7.6; 15 mM NaCl; 1.5 mM MgCl2) and pelleted at 1000 rpm for 4 minutes at room temperature. Cell pellets were resuspended in 1×RSB buffer with 1% TritonX-100, homogenized with a loose pestle (5 strokes) and centrifuged for 5 minutes at 2000 rpm at 4° C. Pellets were washed two times with 1 ml of buffer A (10 mM Tris HCL, pH 7.6; 15 mM NaCl; 60 mM KCl; 0.34 M Sucrose; 0.1% B-mercaptoethanol; 0.15 mM Spermine; 0.5 mM Spermidine; 0.25 mM PMSF) and nuclei were pelleted at 160 g for 10 minutes at 4° C. Nuclei were resuspended in 1.5 mL of buffer A supplemented with 1 mM of CaCl2). Nuclear suspensions (500 μL) were digested with 200 U/mL Micrococcal nuclease at 37° C. at different time points.

Panc1 cells [5] = assay: as above; format: cell-based, human
Protocol: as §3, §4

PDAC cell lines = assay: Clonogenic growth (colony formation) assay; format: cell-based, human; conditions: all PDAC cell lines tested, 11-14 days
Source text: PDAC cells are sensitive to chemical inhibition of CPSF3. CPSF3 was recently identified as the target for the small molecule JTE-607. JTE-607 is a prodrug that, when metabolized by the ester hydrolyzing enzyme carboxylesterase 1 (CES1), binds to CPSF3 and inhibits its catalytic activity, impairing the processing of newly synthesized mRNAs. As genetic depletion of CPSF3 attenuated PDAC cell proliferation (FIG. 1), it 2as hypothesized that pharmacologic inhibition of CPSF3 with JTE-607 could represent a novel therapeutic approach in PDAC. The sensitivity of multiple human pancreatic cell lines, both non-transformed and PDAC, to JTE-607 in a 72-hour dose-response cell viability assay was examined. […] To examine if sensitivity to CPSF3 inhibition was associated with proliferation rate, the relationship between cell line doubling time and JTE-607 sensitivity was assessed. […] Next, the effect of JTE-607 on cell proliferation by treating cells with increasing concentrations of JTE-607 and assessing cell viability in a time-dependent fashion (FIGS. 2C-2E) was determined. […]
JTE-607 studies. […] The next day, JTE-607 was titrated over a range of concentrations using the Tecan D300e Digital Dispenser and cell viability was measured 72 hours post drug titration using a CellTiter-Glo Luminescent Cell Viability Assay Kit (Promega). […] Colony area was measured using ImageJ software. […]

HPNE cells [6] = assay: Cell proliferation time course (CellTiter-Glo, days 0, 2, 4, 6); format: cell-based, human; conditions: increasing concentrations, days 0-6
Source text: as §1
as §2, with “Cells were allowed to grow over a period of 11-14 days after which they were fixed in 10% formalin, stained with 0.2% Crystal Violet and images were obtained for analysis.” left out, “Data were normalized to DMSO control data points.” left out

MiaPaCa2 cells = assay: as above; format: cell-based, human; conditions: increasing concentrations, days 0-6, dose-dependent
Source text: as §1
as §2, with “Cells were allowed to grow over a period of 11-14 days after which they were fixed in 10% formalin, stained with 0.2% Crystal Violet and images were obtained for analysis.” left out, “Data were normalized to DMSO control data points.” left out

Panc1 cells [7] = assay: as above; format: cell-based, human; conditions: increasing concentrations, days 0-6, dose-dependent
Source text: as §1
as §2, with “Cells were allowed to grow over a period of 11-14 days after which they were fixed in 10% formalin, stained with 0.2% Crystal Violet and images were obtained for analysis.” left out, “Data were normalized to DMSO control data points.” left out

xenograft models = xenograft models in vivo; cited from earlier work

CCOC(=O)[C@H](Cc1ccccc1)NC(=O)c1cc(Cl)c(OCCN2CCN(C)CC2)c(Cl)c1O [JTE-607]
IC50 (HPNE cells [1]): 130 µM | IC50 (Panc1 cells [2]): 2.16 µM | IC50 (C7 CAF): 70 µM | IC50 (HPDE cells): 60.1 µM | IC50 (PancPat CAFs): 114 µM | endotoxin-induced production of C-reactive protein, IL-10 and IL-1ra [3]: inhibited | chromatin digestion by MNase (HPNE cells [4]): no chromatin digestion | mononucleosomes released by MNase digestion (Panc1 cells [5]; after 30 minutes of incubation): ~4×10^3 normalized FU | chromatin digestion by MNase (Panc1 cells [5]; compared with DMSO-treated cells): rapid and complete chromatin digestion | colony formation (PDAC cell lines): significantly decreased colony formation | effect on proliferation (HPNE cells [6]): no effect on proliferation | effect on proliferation (MiaPaCa2 cells): significantly attenuated | effect on proliferation (Panc1 cells [7]): significantly attenuated | survival of tumor-bearing mice (xenograft models): prolongs survival
